Source: US11292785B2, “Nitrogen-containing benzoheterocycle compound comprising carboxylic acid group, preparation method and use thereof” (Sichuan Kelun-Biotech Biopharmaceutical Co., Ltd., priority 2018, dated 2022)
Like-named read-outs stand apart in the source and are kept apart here.

Legend:
CCR2 = molecular target: T1, CCR2 (Homo sapiens, UniProt P41597); experiment: Inhibition test on activity of CCR2 in cells (calcium fluorescence, MCP1 stimulation); format: cell-based; settings: HEK293 cells stably expressing CCR2, ligand MCP1
T1 construct: host or cells: HEK293
Excerpt: (§1) HEK293 cells that stably express CCR2 and CCR5 receptor proteins were first labeled with calcium ion sensitive fluorescent probe and then stimulated with corresponding ligands (MCP1 and RANTES). After the stimulation, the receptors were activated to trigger the release of the calcium ions from endoplasmic reticulum to cytoplasm. And once the calcium ions were captured by the fluorescent probe, the fluorescent signal could be triggered. The inhibition of compounds on CCR2 and CCR5 can be evaluated by detecting the intensity of the fluorescent signal.
(§2) To each well of the 384-well plates, 2×10^4 HEK293 cells were added and cultured overnight. After being labelled by fluorescent probe, MCP1 and RANTES in different concentrations were added, and the fluorescent signal was read. The fluorescence signal was plotted in relation to the ligand concentration, and according to the four-parameter model, IC50 values were calculated as the ligand concentrations of the CCR2 and CCR5 for the subsequent detection of the compounds.
(§3) By referring to the above results, cells were incubated with the test compound in different concentrations (5000 nM, 1250 nM, 313 nM, 78 nM, 20 nM, 4.8828 nM, 1.2207 nM, 0.3052 nM, 0.0763 nM, and 0.0191 nM), and after MCP1 and RANTES were added thereto, the fluorescent signal was read. The inhibition activity of each concentration group was calculated, wherein the solvent group (not containing the compound) was as the negative control, and the Buffer group (not containing any ligand) was as the blank control: Relative inhibition activity percentage=1−(fluorescent signal of each concentration group-fluorescent signal of the blank group)/(fluorescent signal of the solvent group-fluorescent signal of the blank group)*100%.
(§4) The inhibition activity percentage of each concentration group was plotted in relation to the concentration of the compound, and the curve was fitted according to the four-parameter model, IC50 values were calculated: y=min+(max−min)/(1+(x/IC50)^(−Hillslope))
(§5) wherein y is the relative inhibition activity percentage; max, min are the maximum and minimum values of the fitted curve, respectively; x is the concentration of the compound, and Hillslope is the slope of the curve.

CCR5 = molecular target: T2, CCR5 (Homo sapiens, UniProt P51681); experiment: Inhibition test on activity of CCR5 in cells (calcium fluorescence, RANTES stimulation); format: cell-based; settings: HEK293 cells stably expressing CCR5, ligand RANTES
T2 construct: host or cells: HEK293
Excerpt: as §1, §2, §3, §4, §5

CYP 1A2 = molecular target: T3, CYP 1A2 (Homo sapiens, UniProt P05177); experiment: CYP 1A2 inhibition test in human liver microsomes (probe phenacetin); format: in vitro ADME; settings: probe substrate phenacetin, read-out: CYP 1A2 (μM), half inhibition concentration (IC50)
T3 construct: from tissue; host or cells: human liver microsomes
T3 sequence (P05177 1-516): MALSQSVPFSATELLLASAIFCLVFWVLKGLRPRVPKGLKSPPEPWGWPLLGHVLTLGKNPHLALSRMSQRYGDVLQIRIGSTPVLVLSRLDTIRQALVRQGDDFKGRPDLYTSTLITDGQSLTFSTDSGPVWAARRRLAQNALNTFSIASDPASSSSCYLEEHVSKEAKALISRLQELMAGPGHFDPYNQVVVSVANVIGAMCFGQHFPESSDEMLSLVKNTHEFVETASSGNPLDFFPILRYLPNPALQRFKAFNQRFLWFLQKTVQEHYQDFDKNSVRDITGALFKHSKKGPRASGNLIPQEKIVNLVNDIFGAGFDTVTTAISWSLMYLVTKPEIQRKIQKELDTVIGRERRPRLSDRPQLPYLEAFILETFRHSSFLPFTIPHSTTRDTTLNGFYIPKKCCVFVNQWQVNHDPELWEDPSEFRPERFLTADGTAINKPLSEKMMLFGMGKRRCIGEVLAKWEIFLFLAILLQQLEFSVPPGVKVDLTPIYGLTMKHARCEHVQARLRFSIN
Protocol: Probe substrate: Phenacetin, National Institute of Control of Pharmaceutical & Biological Products, 100095.
Positive control: alpha-naphthoflavane, ACras, A0331533.
(§6) A probe substrate (50 μl), PBS (49 μl) and a test compound in different concentrations (0.05 μM, 0.15 μM, 0.5 μM, 1.5 μM, 5 μM, 15 μM, 50 μM) or a positive control (1 μl) were mixed with human liver microsomes (HLM, 50 μl) to give 150 μl of a mixed liquid, which was subjected to pre-incubation (37° C.) for 5 min, then added with NADPH (50 μl) and incubated for 30 min. The reaction was quenched by adding 200 μl of glacial acetonitrile. An appropriate volume of an internal standard substance was added, and after vortex treatment and centrifugation, the supernatant was obtained.
(§7) The detection was performed by using LC-MS/MS. The mass spectrometer was API 5500, the liquid chromatograph was Waters ACQUITY UPLC I-CLASS system. The chromatographic column was Hypersil GOLD C18, 1.9 μm particle size, 50×2.1 mm; mobile phase A: water+0.1% formic acid, mobile phase B: acetonitrile; flow rate: 0.4 ml/min, column temperature: 40° C. The ion source as used was ESI source positive ion mode, and the scanning mode was Multiple Reaction Monitoring (MRM).
(§8) By using solvent group (DMSO) as negative control, the concentrations of the main metabolite converted from the probe substrate in the case of different concentrations of the test compound were measured, to determine the half inhibition concentration of the compound (IC50).

CYP 2D6 = molecular target: T4, CYP 2D6 (Homo sapiens, UniProt P10635); experiment: CYP 2D6 inhibition test in human liver microsomes (probe dextromethorphan); format: in vitro ADME; settings: probe substrate dextromethorphan, read-out: CYP 2D6 (μM), half inhibition concentration (IC50)
T4 construct: from tissue; host or cells: human liver microsomes
Protocol: Probe substrate: Dextromethorpha, Beijing Jinbao, 100201.
Positive control: Quinidine, Damas-bata, P1176507.
as §6, §7, §8

CYP 3A4M = molecular target: T5, CYP 3A4M (Homo sapiens, UniProt P08684); experiment: CYP 3A4M inhibition test in human liver microsomes (probe midazolam); format: in vitro ADME; settings: probe substrate midazolam, read-out: CYP 3A4M (μM), half inhibition concentration (IC50)
T5 construct: from tissue; host or cells: human liver microsomes
Protocol: Probe substrate: Midazolam, National Institute of Control of Pharmaceutical & Biological Products, 171265.
Positive control: Ketoconazole, purchased from Dingdang Chemical, DTYC 0516-17.
as §6, §7, §8

CYP 3A4T = molecular target: T6, CYP 3A4T (Homo sapiens, UniProt P08684); experiment: CYP 3A4T inhibition test in human liver microsomes (probe testosterone); format: in vitro ADME; settings: probe substrate testosterone, read-out: CYP 3A4T (μM), half inhibition concentration (IC50)
T6 construct: from tissue; host or cells: human liver microsomes
Protocol: Probe substrate: Testosterone, European Pharmacopoeia (EP) Reference Standard, Sigma-Aldrich, T0100000.
Positive control: Ketoconazole, Dingdang Chemical, DTYC 0516-17.
as §6, §7, §8

[1] = molecular target: T7, hERG potassium ion channels (Homo sapiens, UniProt Q12809); experiment: hERG inhibition test, manual patch clamp, HEK293 cells over-expressing hERG; format: cell-based; settings: tested at 1 μM and 10 μM
T7 construct: expressed in transfected cells; host or cells: HEK293
Protocol: Different concentrations (1 μM and 10 μM) of the test compound and 30 μM positive control Quinidine were formulated. HEK293 cells over-expressing hERG potassium ion channels were cultured in 5% CO2 incubator at 37° C. When the density of the cells reaches 80% of the Petri dish, the cells was washed with phosphate buffer solution (PBS), followed by digestion with Trypsin/EDTA for 2-3 minutes. The digestion was terminated by adding cell culture medium, then the solution was transferred and centrifuged to remove the supernatant, and added with cell culture medium (DMEM, 15% fetal bovine serum and 1% 100×Penicillin-Streptomycin). After uniformly mixing, the cells were dripped onto a circular slide and cultured in a Petri dish to obtain the test cells.
Channel current was recorded by applying electrophysiological manual patch clamp in a whole-cell recording mode: extracellular fluid was perfused until the current was stable, after the peak value of the tail current (control current value) was recorded, the extracellular fluid containing different concentrations of the test compound was perfused, continuously recording was conducted until the inhibition effect of the medicine on the hERG current reach stable, and the peak value of the tail current (current value after drug administration) was recorded.

[2] = Rat pharmacokinetic (PK) studies, plasma and liver; format: in vivo; settings: male SD rats, p.o. 5 mg/kg; for Kp: male, SD, liver relative to plasma, 5 mg/kg; for Kp / AUC(0-t) / Cmax / bioavailability / half-life: rat, po
Protocol: The test compound was administered intragastrically (p.o.) to male SD rats at a dose of 5 mg/kg. The solvent system was 0.5% MC during the p.o. administration. After p.o. administration, blood was collected for PK studies at 5 min, 15 min, 30 min, 1 h, 2 h, 4 h, 6 h, 8 h, and 24 h. After p.o. administration, liver tissues were collected at 15 min, 1 h, 4 h, 8 h and 24 h, and the liver tissue sample, after being subjected to protein precipitation treatment, was analyzed by a LC-MS/MS. The mass spectrometer was API 5500, and the liquid chromatograph was Waters ACQUITY I CLASS system: chromatographic column: Agela ASB C18 column (2.1 mm×50 mm, 1.9 μm); mobile phase A: water+0.1% formic acid, mobile phase B: acetonitrile; flow rate: 0.4 mL/min, column temperature: 40° C. The ion source as used was ESI source positive ion mode, and the scanning mode was Multiple Reaction Monitoring (MRM).

T1 sequence (P41597 whole entry): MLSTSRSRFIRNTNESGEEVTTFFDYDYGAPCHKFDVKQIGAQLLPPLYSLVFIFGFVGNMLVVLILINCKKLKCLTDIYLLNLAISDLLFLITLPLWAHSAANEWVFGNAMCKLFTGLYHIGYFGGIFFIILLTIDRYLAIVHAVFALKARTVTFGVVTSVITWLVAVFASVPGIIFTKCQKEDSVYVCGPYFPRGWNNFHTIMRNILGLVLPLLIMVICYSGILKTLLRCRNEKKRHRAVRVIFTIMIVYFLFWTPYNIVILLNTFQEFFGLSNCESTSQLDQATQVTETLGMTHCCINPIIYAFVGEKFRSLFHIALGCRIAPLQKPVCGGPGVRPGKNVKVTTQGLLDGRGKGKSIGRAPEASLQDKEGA
T4 sequence (P10635 whole entry): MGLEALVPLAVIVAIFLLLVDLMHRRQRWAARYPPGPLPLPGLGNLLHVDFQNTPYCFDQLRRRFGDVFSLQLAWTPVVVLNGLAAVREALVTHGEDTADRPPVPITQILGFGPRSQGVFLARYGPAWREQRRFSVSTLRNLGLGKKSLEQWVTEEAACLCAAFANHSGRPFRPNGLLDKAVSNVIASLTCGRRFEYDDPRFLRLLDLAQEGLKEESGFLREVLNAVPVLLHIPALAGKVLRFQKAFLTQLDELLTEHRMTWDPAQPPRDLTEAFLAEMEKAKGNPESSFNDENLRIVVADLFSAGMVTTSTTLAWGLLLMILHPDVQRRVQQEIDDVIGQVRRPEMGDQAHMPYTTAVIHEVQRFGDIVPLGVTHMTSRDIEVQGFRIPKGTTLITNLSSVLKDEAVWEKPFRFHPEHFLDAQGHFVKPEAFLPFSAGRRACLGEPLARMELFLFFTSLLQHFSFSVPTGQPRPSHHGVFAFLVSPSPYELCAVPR
T7 sequence (Q12809 whole entry): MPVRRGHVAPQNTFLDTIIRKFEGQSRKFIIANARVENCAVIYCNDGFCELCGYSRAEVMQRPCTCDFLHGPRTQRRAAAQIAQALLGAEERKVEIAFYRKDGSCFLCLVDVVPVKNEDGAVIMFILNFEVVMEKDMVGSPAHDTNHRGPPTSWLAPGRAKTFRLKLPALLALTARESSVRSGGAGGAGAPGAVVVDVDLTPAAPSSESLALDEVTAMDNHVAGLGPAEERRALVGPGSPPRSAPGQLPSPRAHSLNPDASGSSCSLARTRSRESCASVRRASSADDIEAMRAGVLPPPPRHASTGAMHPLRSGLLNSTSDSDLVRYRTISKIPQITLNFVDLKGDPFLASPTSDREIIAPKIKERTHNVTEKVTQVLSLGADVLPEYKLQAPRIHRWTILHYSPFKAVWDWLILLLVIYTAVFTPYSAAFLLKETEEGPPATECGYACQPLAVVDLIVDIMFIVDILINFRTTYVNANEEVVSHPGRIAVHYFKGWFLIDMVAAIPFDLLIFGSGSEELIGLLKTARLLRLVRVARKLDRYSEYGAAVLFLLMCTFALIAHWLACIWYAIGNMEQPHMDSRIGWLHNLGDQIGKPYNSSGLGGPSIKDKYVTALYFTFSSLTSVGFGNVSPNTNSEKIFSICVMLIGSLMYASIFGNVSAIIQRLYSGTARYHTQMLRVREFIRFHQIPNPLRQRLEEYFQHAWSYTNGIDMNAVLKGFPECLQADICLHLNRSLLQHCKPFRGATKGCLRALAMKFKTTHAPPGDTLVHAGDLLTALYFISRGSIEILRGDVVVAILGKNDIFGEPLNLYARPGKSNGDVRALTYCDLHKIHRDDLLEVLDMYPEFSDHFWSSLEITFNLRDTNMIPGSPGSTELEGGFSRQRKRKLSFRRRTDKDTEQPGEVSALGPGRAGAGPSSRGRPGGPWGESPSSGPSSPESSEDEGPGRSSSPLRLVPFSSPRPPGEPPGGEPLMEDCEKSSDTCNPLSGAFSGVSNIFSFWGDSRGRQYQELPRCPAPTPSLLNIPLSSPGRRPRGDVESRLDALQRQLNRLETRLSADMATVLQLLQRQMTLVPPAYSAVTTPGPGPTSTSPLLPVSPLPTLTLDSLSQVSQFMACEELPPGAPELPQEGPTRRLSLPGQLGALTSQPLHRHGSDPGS
T2 sequence (P51681 whole entry): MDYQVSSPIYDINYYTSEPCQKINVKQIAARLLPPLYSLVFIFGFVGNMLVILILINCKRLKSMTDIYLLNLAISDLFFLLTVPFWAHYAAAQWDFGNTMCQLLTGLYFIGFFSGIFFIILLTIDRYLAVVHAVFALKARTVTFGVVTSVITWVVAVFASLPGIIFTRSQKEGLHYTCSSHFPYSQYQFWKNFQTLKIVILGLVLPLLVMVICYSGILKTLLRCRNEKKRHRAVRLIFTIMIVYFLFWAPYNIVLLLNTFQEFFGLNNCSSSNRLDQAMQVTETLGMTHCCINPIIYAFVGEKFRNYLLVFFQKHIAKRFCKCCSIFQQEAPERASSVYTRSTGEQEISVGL
T6 sequence (P08684 whole entry): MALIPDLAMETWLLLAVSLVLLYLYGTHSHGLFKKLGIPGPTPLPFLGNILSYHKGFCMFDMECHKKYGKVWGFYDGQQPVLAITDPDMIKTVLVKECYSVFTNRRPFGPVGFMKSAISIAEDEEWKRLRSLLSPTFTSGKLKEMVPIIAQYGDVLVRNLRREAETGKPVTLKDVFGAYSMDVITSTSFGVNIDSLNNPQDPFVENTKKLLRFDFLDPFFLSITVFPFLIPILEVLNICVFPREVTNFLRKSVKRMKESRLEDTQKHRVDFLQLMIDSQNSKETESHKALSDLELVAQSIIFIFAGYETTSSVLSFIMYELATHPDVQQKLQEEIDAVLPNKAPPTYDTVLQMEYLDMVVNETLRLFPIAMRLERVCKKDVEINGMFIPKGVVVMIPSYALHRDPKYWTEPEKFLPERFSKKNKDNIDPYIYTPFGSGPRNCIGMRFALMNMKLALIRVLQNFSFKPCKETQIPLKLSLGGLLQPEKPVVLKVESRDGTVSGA
T5 sequence (P08684 whole entry): as above

Row | Structure (SMILES) | IC50 (CCR2) [nM] | IC50 (CCR5) [nM] | IC50 (CYP 1A2) [µM] | IC50 (CYP 2D6) [µM] | IC50 (CYP 3A4M) [µM] | IC50 (CYP 3A4T) [µM] | IC50 [1] [µM] | AUClast ([2]; liver) [ng·h/g] | Kp ([2]; AUClast liver vs plasma, read-out: exposure in the liver relative to that in the plasma) | Kp ([2]; Cmax liver vs plasma, read-out: drug concentration in the liver relative to that in the plasma) | AUC(0-t) ([2]; blood plasma) [ng·h/mL] | Cmax ([2]; blood plasma) [ng/mL] | bioavailability ([2]; blood plasma) [%] | half-life ([2]; blood plasma) [h] | Cmax ([2]; liver) [ng/g] | half-life ([2]; liver) [h]
1 | CCCCOCCOc1ccc(-c2ccc3c(c2)/C=C(/C(=O)Nc2ccc([S@+]([O-])Cc4c(C)ncn4CCC)cc2)CCCN3CC(C)(C)C(=O)O)cc1 [Compound 4] | 6.12 | 2.82 | > 10 | > 10 | 15.3 | 48.3 | > 10 |  |  |  |  |  |  |  |  | 
2 | CCCCOCCOc1ccc(-c2ccc3c(c2)/C=C(/C(=O)Nc2ccc([S@@+]([O-])Cc4c(C)ncn4CCC)cc2)CCCN3CC(C)(C)C(=O)O)cc1 [Compound 3] | 0.81 | 1.48 | > 10 | > 10 | 13.3 | 32.3 | > 10 | 386938 ± 30242 | ~2340 | ~530 | 165 ± 36 | 49.7 ± 10.6 | 20.9 ± 4.5 | 1.93 ± 0.37 | 26600 ± 200 | 7.2 ± 0.5
3 | CCCCOCCOc1ccc(-c2ccc3c(c2)/C=C(/C(=O)Nc2ccc([S+]([O-])Cc4c(C)ncn4CCC)cc2)CCCN3CC(C)(C)C(=O)O)cc1 (stereo not shown) [Compound 2, (E)-3-(8-(4-(2-butoxyethoxy)phenyl)-5-((4-(((4-methyl-1-propyl-1H-imidazol-5-yl)methyl)sulfinyl)phenyl)carbamoyl)-3,4-dihydrobenzo[b]azacyclooctatetraen-1(2H)-yl)-2,2-dimethylpropanoic acid] | 6.38 | 3.18 | > 10 | > 10 | 27.8 | 62.2 | > 10 |  |  |  |  |  |  |  |  | 
4 | CCCCOCCOc1ccc(-c2ccc3c(c2)/C=C(/C(=O)Nc2ccc([S@@+]([O-])Cc4cncn4CCC)cc2)CCCN3CC(C)(C)C(=O)O)cc1 [Compound 1, (S,E)-3-(8-(4-(2-butoxyethoxy)phenyl)-5-((4-(((1-propyl-1H-imidazol-5-yl)methyl)sulfinyl)phenyl)carbamoyl)-3,4-dihydrobenzo[b]azacyclooctatetraen-1(2H)-yl)-2,2-dimethylpropanoic acid] | 0.74 | 0.33 | > 10 | > 10 |  |  |  |  |  |  |  |  |  |  |  | 
5 | CCCCOCCOc1ccc(-c2ccc3c(c2)/C=C(/C(=O)Nc2ccc([S@@+]([O-])Cc4cncn4CCC)cc2)CCCN3CC(C)C)cc1 [Cenicriviroc, reference compound] |  |  |  |  | 3.43 | 12.7 |  | 6033 ± 2193 |  |  | 6330 ± 3440 | 746 ± 428 | 10.8 ± 3.5 | 4.33 ± 0.87 | 688 ± 229 | 3.93 ± 1.88
